Results from PubChem BioAssay AID248 (DTP/NCI, 2004).
Several values for one entry are separate records, joined by “and”; a condition that tells them apart may be missing. Equal entries are not always repeated. Toxic doses and inconclusive results are not listed. Cut-off read from the data, not from the text of the source: active = T/C of 150% or more; inactive = T/C below 125%.

System: L1210 leukemia ip in BDF1 mice, survival T/C
Assay: NCI In Vivo Anticancer Drug Screen. Data for tumor model L1210 Leukemia (intraperitoneal) in B6D2F1 (BDF1) mice
Conditions: endpoint: mean survival time, higher = longer survival
Summary of the method: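 Survival endpoint. Drug-treated group vs vehicle group, expressed as T divided by C. Tumor passaged by transplantation.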

[1] = dose: 100.0 mg/kg/injection, schedule: Q04DX003 (ip), vehicle: saline with Tween-80
[2] = dose: 200.0 mg/kg/injection, schedule: Q04DX003 (ip), vehicle: saline with Tween-80
[3] = dose: 400.0 mg/kg/injection, schedule: Q04DX003 (ip), vehicle: saline with Tween-80
[4] = dose: 100.0 mg/kg/injection, schedule: Q04DX003 (ip), vehicle: saline
[5] = dose: 100.0 mg/kg/injection, schedule: Q01DX001 (ip), vehicle: saline
[6] = dose: 200.0 mg/kg/injection, schedule: Q01DX001 (ip), vehicle: saline
[7] = dose: 400.0 mg/kg/injection, schedule: Q01DX001 (ip), vehicle: saline
[8] = dose: 100.0 mg/kg/injection, schedule: Q04DX002 (ip), vehicle: Klucel (hydroxypropylcellulose) (HPC)
[9] = dose: 100.0 mg/kg/injection, schedule: Q04DX002 (ip), vehicle: saline
[10] = dose: 200.0 mg/kg/injection, schedule: Q04DX002 (ip), vehicle: saline
[11] = dose: 100.0 mg/kg/injection, schedule: Q01DX001 (ip), vehicle: Klucel (hydroxypropylcellulose) (HPC)
[12] = dose: 200.0 mg/kg/injection, schedule: Q01DX001 (ip), vehicle: Klucel (hydroxypropylcellulose) (HPC)
[13] = dose: 100.0 mg/kg/injection, schedule: Q01DX001 (ip), vehicle: saline with Tween-80
[14] = dose: 100.0 mg/kg/injection, schedule: Q01DX009 (ip), vehicle: saline with Tween-80
[15] = dose: 200.0 mg/kg/injection, schedule: Q01DX001 (ip), vehicle: saline with Tween-80
[16] = dose: 200.0 mg/kg/injection, schedule: Q01DX009 (ip), vehicle: saline with Tween-80
[17] = dose: 100.0 mg/kg/injection, schedule: Q04DX002 (ip), vehicle: saline with Tween-80
[18] = dose: 200.0 mg/kg/injection, schedule: Q04DX002 (ip), vehicle: saline with Tween-80
[19] = dose: 400.0 mg/kg/injection, schedule: Q04DX002 (ip), vehicle: saline with Tween-80

Measured: T/C

CCOC(=O)C(CC)C(=O)OCC
inactive: [1] 104 % of control | [2] 98 % of control | [3] 93 % of control

CC(CCC1CCCCC1)c1ccccc1 (stereo not drawn) (tested in a mixture with another compound)
inactive: [1] 93 % of control | [2] 96 % of control | [3] 93 % of control

CN(C)Cc1cccc([N+](=O)[O-])c1
inactive: dose: 25.0 mg/kg/injection, schedule: Q04DX003 (ip), vehicle: saline 88 % of control | dose: 50.0 mg/kg/injection, schedule: Q04DX003 (ip), vehicle: saline 98 % of control | [4] 102 % of control

COC(=O)C(OC(C)=O)C1OC(n2cnc3c(=S)nc[nH]c32)C(OC(C)=O)C1OC(C)=O (stereo not drawn)
inactive: [5] 96 % of control | [6] 102 % of control | [7] 97 % of control

CCCCCCCCCCc1nc(N)nc(NCCc2ccccc2)n1
inactive: [8] 106 % of control | dose: 200.0 mg/kg/injection, schedule: Q04DX002 (ip), vehicle: Klucel (hydroxypropylcellulose) (HPC) 89 % of control | dose: 400.0 mg/kg/injection, schedule: Q04DX002 (ip), vehicle: Klucel (hydroxypropylcellulose) (HPC) 100 % of control

CCCOCCOCCOC(C)Oc1ccc(OC)cc1 (stereo not drawn)
inactive: [9] 92 % of control | [10] 101 % of control

BrC1(Br)C2C3C=CC4C(C=C3)C4C21 (stereo not drawn)
inactive: dose: 50.0 mg/kg/injection, schedule: Q01DX001 (ip), vehicle: Klucel (hydroxypropylcellulose) (HPC) 105 % of control | [11] 103 % of control | [12] 108 % of control

CCOC(=O)N1C(=O)NC(=O)C1c1ccccc1 (stereo not drawn)
inactive: dose: 50.0 mg/kg/injection, schedule: Q01DX001 (ip), vehicle: saline 97 % of control | [5] 115 % of control | [6] 97 % of control

COC1OC2COC(c3ccccc3)OC2C2OC(=S)OC12 (stereo not drawn)
inactive: dose: 25.0 mg/kg/injection, schedule: Q04DX002 (ip), vehicle: Klucel (hydroxypropylcellulose) (HPC) 104 % of control | dose: 50.0 mg/kg/injection, schedule: Q04DX002 (ip), vehicle: Klucel (hydroxypropylcellulose) (HPC) 97 % of control | [5] 102 % of control | [8] 104 % of control | [9] 93 % of control | [6] 98 % of control | [10] 100 % of control | [7] 98 % of control | dose: 400.0 mg/kg/injection, schedule: Q04DX002 (ip), vehicle: saline 107 % of control

C[N+](C)(C)/N=C1\CCc2ccccc21
inactive: dose: 50.0 mg/kg/injection, schedule: Q01DX009 (ip), vehicle: saline with Tween-80 100 % of control | dose: 50.0 mg/kg/injection, schedule: Q04DX003 (ip), vehicle: saline with Tween-80 110 % of control | [13] 97 % of control | [14] 97 % of control | [1] 98 % of control | [15] 100 % of control | [16] 103 % of control | [2] 91 % of control

Cc1ccc(S(=O)(=O)N2Cc3ccc([N+](=O)[O-])cc3C2)cc1
inactive: dose: 100.0 mg/kg/injection, schedule: Q01DX001 (ip), vehicle: carboxymethylcellulose (CMC) 100 % of control | dose: 200.0 mg/kg/injection, schedule: Q01DX001 (ip), vehicle: carboxymethylcellulose (CMC) 102 % of control | dose: 400.0 mg/kg/injection, schedule: Q01DX001 (ip), vehicle: carboxymethylcellulose (CMC) 105 % of control

C[N+](C)(CCCCCCCCCC[N+](C)(C)Cc1ccccc1)Cc1ccccc1
inactive: dose: 1.5 mg/kg/injection, schedule: Q01DX009 (ip), vehicle: saline 106 % of control | dose: 1.5 mg/kg/injection, schedule: Q04DX003 (ip), vehicle: saline 95 % of control | dose: 3.0 mg/kg/injection, schedule: Q01DX009 (ip), vehicle: saline 101 % of control | dose: 3.0 mg/kg/injection, schedule: Q04DX003 (ip), vehicle: saline 97 % of control | dose: 6.0 mg/kg/injection, schedule: Q01DX009 (ip), vehicle: saline 93 % of control | dose: 6.0 mg/kg/injection, schedule: Q04DX003 (ip), vehicle: saline 95 % of control

CC(=O)OCC1OC(N2C(=O)/C(=C/c3cccnc3)SC2=S)C(OC(C)=O)C(OC(C)=O)C1OC(C)=O (stereo not drawn)
inactive: dose: 25.0 mg/kg/injection, schedule: Q01DX005 (ip), vehicle: other 94 % of control | dose: 50.0 mg/kg/injection, schedule: Q01DX005 (ip), vehicle: other 96 % of control | dose: 100.0 mg/kg/injection, schedule: Q01DX005 (ip), vehicle: other 96 % of control | dose: 200.0 mg/kg/injection, schedule: Q01DX005 (ip), vehicle: other 105 % of control

CCCCCCCCCCCCCSCCSCCCCCCCCCCCCC
inactive: [11] 96 % of control | [12] 86 % of control | dose: 400.0 mg/kg/injection, schedule: Q01DX001 (ip), vehicle: Klucel (hydroxypropylcellulose) (HPC) 96 % of control

O=C(OC1CCOCC1OC(=O)c1ccccc1)c1ccccc1 (stereo not drawn)
inactive: [17] 100 % of control | [18] 100 % of control | [19] 96 % of control

OCC(O)C(O)C(O)/C=N\O (stereo not drawn)
inactive: [4] 107 % of control | dose: 200.0 mg/kg/injection, schedule: Q04DX003 (ip), vehicle: saline 107 % of control | dose: 400.0 mg/kg/injection, schedule: Q04DX003 (ip), vehicle: saline 100 % of control

CC(CNC(=O)OCc1ccccc1)C(=O)O (stereo not drawn)
inactive: [13] 95 % of control | [14] 105 % of control and 117 % of control | [17] 103 % of control | [1] 96 % of control | [15] 93 % of control | [16] 105 % of control and 86 % of control | [18] 100 % of control | [2] 91 % of control | dose: 400.0 mg/kg/injection, schedule: Q01DX001 (ip), vehicle: saline with Tween-80 96 % of control | dose: 400.0 mg/kg/injection, schedule: Q01DX009 (ip), vehicle: saline with Tween-80 94 % of control and 105 % of control | [19] 110 % of control | [3] 95 % of control

ON(C(=Nc1cccc2ccccc12)c1ccccc1)c1ccccc1
inactive: dose: 75.0 mg/kg/injection, schedule: Q01DX001 (ip), vehicle: carboxymethylcellulose (CMC) 97 % of control | dose: 150.0 mg/kg/injection, schedule: Q01DX001 (ip), vehicle: carboxymethylcellulose (CMC) 92 % of control | dose: 300.0 mg/kg/injection, schedule: Q01DX001 (ip), vehicle: carboxymethylcellulose (CMC) 98 % of control

Cc1ccc(NC(=O)Nc2cccc(O)c2)c([N+](=O)[O-])c1
inactive: dose: 50.0 mg/kg/injection, schedule: Q01DX009 (ip), vehicle: Klucel (hydroxypropylcellulose) (HPC) 98 % of control | dose: 100.0 mg/kg/injection, schedule: Q01DX009 (ip), vehicle: Klucel (hydroxypropylcellulose) (HPC) 102 % of control | dose: 100.0 mg/kg/injection, schedule: Q04DX003 (ip), vehicle: Klucel (hydroxypropylcellulose) (HPC) 103 % of control | dose: 200.0 mg/kg/injection, schedule: Q01DX009 (ip), vehicle: Klucel (hydroxypropylcellulose) (HPC) 98 % of control | dose: 200.0 mg/kg/injection, schedule: Q04DX003 (ip), vehicle: Klucel (hydroxypropylcellulose) (HPC) 106 % of control | dose: 400.0 mg/kg/injection, schedule: Q04DX003 (ip), vehicle: Klucel (hydroxypropylcellulose) (HPC) 103 % of control
